Test results published in patent publication US10501473B2, “Fused heterocyclic ring compounds and method of treating retinal disease using same” (THE INDUSTRY & ACADEMIC COOPERATION IN CHUNGNAM NATIONAL …, priority 2014, dated 2019).

Key:
[1] = target: RIPK1 (receptor-interacting serine/threonine-protein kinase 1) (Homo sapiens (Human), UniProt Q13546); assay: RIPK1 inhibitory activity, autophosphorylation of immuno-precipitated RIPK1 with [32P]γ-ATP; type: biochemical; conditions: for activity at 100 µM: compound 100 μM, remaining RIPK1 phosphorylation; for inhibition at 100 µM: Table 2, 100 μM
Sequence of RIPK1 (receptor-interacting serine/threonine-protein kinase 1) (Q13546 whole entry, species assumed): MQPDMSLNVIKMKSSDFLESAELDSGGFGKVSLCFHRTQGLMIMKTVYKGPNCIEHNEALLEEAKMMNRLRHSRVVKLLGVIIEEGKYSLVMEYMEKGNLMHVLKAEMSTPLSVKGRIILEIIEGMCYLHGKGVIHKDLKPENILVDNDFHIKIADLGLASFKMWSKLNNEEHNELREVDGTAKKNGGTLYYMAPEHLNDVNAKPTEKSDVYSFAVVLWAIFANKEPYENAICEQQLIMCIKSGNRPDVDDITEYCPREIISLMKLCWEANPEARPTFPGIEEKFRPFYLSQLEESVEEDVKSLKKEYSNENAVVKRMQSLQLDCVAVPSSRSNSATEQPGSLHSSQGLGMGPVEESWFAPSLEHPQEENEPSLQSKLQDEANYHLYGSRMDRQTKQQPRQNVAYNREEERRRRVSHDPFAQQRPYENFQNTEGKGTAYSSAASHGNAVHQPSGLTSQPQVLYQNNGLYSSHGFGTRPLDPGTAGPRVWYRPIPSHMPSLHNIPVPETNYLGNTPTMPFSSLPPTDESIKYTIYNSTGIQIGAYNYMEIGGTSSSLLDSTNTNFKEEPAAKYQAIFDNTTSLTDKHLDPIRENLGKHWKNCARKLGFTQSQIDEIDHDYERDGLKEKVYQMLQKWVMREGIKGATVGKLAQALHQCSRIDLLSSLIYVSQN
Experimental: The following experiment was performed to evaluate RIPK1 (receptor-interacting serine/threonine-protein kinase 1) inhibitory activity of the compounds of examples of the invention.
RIPK1 enzyme immuno-precipitated in HEK293 (Human Embryonic Kidney 293) cell lysate was used as kinase. The experiment was performed according to the method described in Cell. 12; 137(6):1112-23(2009). RIPK1 protein was over-expressed in HEK293 cell line, to which lysis buffer (50 mM Tris-Cl [pH 8.0], 150 mM NaCl, 1 mM EDTA, 1% NP-40, 0.4 mM phenylmethylsulfonyl fluoride (PMSF)) was added for cell lysis. Centrifugation was performed at 13,000 rpm for 10 minutes to separate the supernatant. RIPK1 monoclonal antibody (610459, BD Bioscience) and A/G agarose beads (sc-2003, Santa Cruz Biotechnology) were added thereto, followed by immuno-precipitation in a 4° C. rotator for 12 hours.
The immune complex was washed with lysis buffer twice and then washed with kinase assay buffer (20 mM HEPES [pH7.6], 2 mM DTT, 1 mM NaF, 1 mM Na3Vo4, 20 mM β-glycerophosphate, 20 mM PNPP, 20 mM MgCl2, 20 mM MnCl2, 1 mM Benzamidie, and 1 mM EDTA) lastly. Kinase assay buffer and the compound were added to the RIPK1 immuno-precipitate, followed by reaction in a 24° C. constant-temperature water bath for 15 minutes. Additional reaction was induced for 30 minutes at 30° C. after 100 μM of ATP and 10 μCi[^32P] γ-ATP were added thereto. The reaction mixture was washed with kinase assay buffer once, to which protein loading buffer was added, followed by heating at 100° C. for 3 minutes. The reaction mixture was then loaded on 8% SDS-PAGE gel. Radioactive image of the phosphorylated RIPK1 was detected with FLA-7000 (GE healthcare). The image Quant TL program was used for the quantification.

[2] = system: RGC-5 (rat ganglion cell); assay: Retinal nerve protection under oxygen-glucose deprivation (OGD), LDH assay; type: cell-based; conditions: RGC-5, OGD 15 hours, compound 20 μM, DMSO control = 100%
Experimental: The following experiment was performed to evaluate the protective effect of the compounds of examples of the invention on the retinal nerve under oxygen-glucose deprivation condition.
The retinal ganglion cell line RGC-5 (rat ganglion cell) was cultured in DMEM (Dulbecco's modified Eagle's medium) supplemented with 10% FBS (fetal bovine serum) and 1% penicillin/streptomycin. The cells were distributed in a 96-well plate at the density of 8×10^3 cells/well, followed by culture in a 37° C., CO2 incubator for 12 hours. The cells were washed with PBS once and the medium was replaced with glucose free DMEM. The cells were treated with either DMSO (0.1%) alone (control) or with the compounds of examples (20 μM) shown in Table 3, followed by culture in an anaerobic incubator (10% H2, 5% CO2, 85% N2, 37° C., chamber (ThermoForma, USA)) for 15 hours to induce cell death.
The level of cell death was measured by LDH (lactate dehydrogenase, Roche) assay. The LDH assay is a method for measuring the activity of LDH released from the damaged cells into the culture medium. NAD^+ was reduced to NADH and H^+ by LDH, and the bond of tetrazolium salt INT ring was cleaved by diaphorase to form formazan. Absorbance of the formazan was measured at 490 nm by using Victor 3 (PerkinElmer). The absorbance reflects the amount of dead cells.
The level of the control LDH under oxygen-glucose deprivation condition was regarded as 100%, and the level of LDH in the cell group cultured in normal medium (10% FBS, DMEM) for the same time was regarded as 0%. Based on that, the levels of LDH of the cell groups treated with the compounds of the invention under oxygen-glucose deprivation condition were converted into the relative ratio of cell death. The compounds of examples of the invention were treated to wells, each compound for three wells, and then each experiment was performed in triplicate.

NC(=O)c1ccc(-c2cccc3sc(C(=O)N4CCOCC4)cc23)cc1 [Example 43, 4-(2-(morpholine-4-carbonyl)benzo[b]thiophene-4-yl)benzamide]
activity at 100 µM [1]: 58.5 ± 17.7% | Death of retinal nerve cell (%) [2]: 62.3 ± 1.7%

O=C(c1cc2c(S(=O)(=O)Cc3ccc(F)cc3)cccc2s1)N1CCOCC1 [Example 62, (4-(4-fluorobenzylsulfonyl)benzo[b]thiophene-2-yl)(morpholino)methanone]
activity at 100 µM [1]: 82.5 ± 5% | Death of retinal nerve cell (%) [2]: 59.3 ± 16.3%

CN(c1ccc(F)cc1)c1cccc2sc(C(=O)N3CCOCC3)cc12 [Example 69, (4-((4-fluorophenyl)(methyl)amino)benzo[b]thiophene-2-yl)(morpholino)methanone]
inhibition at 100 µM [1]: ≥ 50% | activity at 100 µM [1]: 22.5 ± 16.3% | Death of retinal nerve cell (%) [2]: 69.4 ± 10.9%

O=C(c1cc2c(Nc3ccc(F)cc3F)cccc2s1)N1CCOCC1 [Example 58, (4-(2,4-difluorophenylamino)benzo[b]thiophene-2-yl)(morpholino)methanone]
activity at 100 µM [1]: 78.5 ± 30.4% | Death of retinal nerve cell (%) [2]: 89.4 ± 6.4%

O=C(c1cc2c(-c3ccc(F)cc3)ccc(Cl)c2s1)N1CCOCC1 [Example 53, (7-chloro-4-(4-fluorophenyl)benzo[b]thiophene-2-yl)(morpholino)methanone]
activity at 100 µM [1]: 70 ± 4.2% | Death of retinal nerve cell (%) [2]: 59.9 ± 9.7%

O=C(c1cc2c(Nc3ccc(F)cc3)cccc2s1)N1CCOCC1 [Example 68, (4-(4-fluorophenylamino)benzo[b]thiophene-2-yl)(morpholino)methanone]
inhibition at 100 µM [1]: ≥ 50% | activity at 100 µM [1]: 33.5 ± 12% | Death of retinal nerve cell (%) [2]: 58.3 ± 11.9%

O=C(c1cc2c(-c3ccc(OC(F)(F)F)cc3)cccc2s1)N1CCOCC1 [Example 45, morpholino(4-(4-(trifluoromethoxy)phenyl)benzo[b]thiophene-2-yl)methanone]
activity at 100 µM [1]: 86.7 ± 34.6% | Death of retinal nerve cell (%) [2]: 89.4 ± 14.0%

O=C(c1cc2c(-c3ccc(F)cc3)cccc2s1)N1CCC(O)CC1 [Example 48, (4-(4-fluorophenyl)benzo[b]thiophene-2-yl)(4-hydroxypiperidine-1-yl)methanone]
inhibition at 100 µM [1]: ≥ 50% | activity at 100 µM [1]: 25.5 ± 0.7% | Death of retinal nerve cell (%) [2]: 47.7 ± 13.2%

O=C(c1cc2ccc3ccccc3c2s1)N1CCOCC1 [Example 6, morpholino(naphtho[1,2-b]thiophene-2-yl)methanone]
inhibition at 100 µM [1]: ≥ 50% | activity at 100 µM [1]: 48.5 ± 23.3% | Death of retinal nerve cell (%) [2]: 30.7 ± 1.06%

Cn1cc(-c2cccc3sc(C(=O)N4CCOCC4)cc23)cn1 [Example 73, (4-(1-methyl-1H-pyrazol-4-yl)benzo[b]thiophene-2-yl)(morpholino)methanone]
inhibition at 100 µM [1]: ≥ 50% | activity at 100 µM [1]: 22 ± 19.8% | Death of retinal nerve cell (%) [2]: 62.3 ± 10.1%

Cc1ccc(-c2cccc3sc(C(=O)N4CCOCC4)cc23)cc1 [Example 32, morpholino(4-p-tolylbenzo[b]thiophene-2-yl)methanone]
activity at 100 µM [1]: 6.5 ± 4.9% | Death of retinal nerve cell (%) [2]: 64.6 ± 7.4%

O=C(c1cc2cc(O)ccc2[nH]1)N1CCOCC1 [Example 11, (5-hydroxy-1H-indole-2-yl)(morpholino)methanone]
activity at 100 µM [1]: 70.7 ± 28.5% | Death of retinal nerve cell (%) [2]: 41.1 ± 3.1%

O=C(c1cc2c(-c3ccc(Br)cc3)cccc2s1)N1CCOCC1 [Example 54, (4-(4-bromophenyl)benzo[b]thiophene-2-yl)(morpholino)methanone]
activity at 100 µM [1]: 54.5 ± 37.5% | Death of retinal nerve cell (%) [2]: 74.3 ± 5.1%

O=C(O)C1COCCN1C(=O)c1cc2c(-c3ccc(F)cc3)cccc2s1 (centres unmarked) [Example 8, 4-(4-(4-fluorophenyl)benzo[b]thiophene-2-carbonyl)morpholine-3-carboxylic acid]
activity at 100 µM [1]: 88.5 ± 16.3% | Death of retinal nerve cell (%) [2]: 52.3 ± 11.1%

O=C(c1cc2c(SCc3ccc(F)cc3)cccc2s1)N1CCOCC1 [Example 71, (4-(4-fluorobenzylthio)benzo[b]thiophene-2-yl)(morpholino)methanone]
activity at 100 µM [1]: 87 ± 4.2% | Death of retinal nerve cell (%) [2]: 89.1 ± 14.9%

CSc1ccc(-c2cccc3sc(C(=O)N4CCOCC4)cc23)cc1 [Example 50, (4-(4-(methylthio)phenyl)benzo[b]thiophene-2-yl)(morpholino)methanone]
inhibition at 100 µM [1]: ≥ 50% | activity at 100 µM [1]: 47.5 ± 2.1% | Death of retinal nerve cell (%) [2]: 57.2 ± 8.1%

COS(=O)c1ccc(-c2cccc3sc(C(=O)N4CCOCC4)cc23)cc1 (centres unmarked) [Example 64, methyl 4-(2-(morpholine-4-carbonyl)benzo[b]thiophene-4-yl)benzene sulfinate]
activity at 100 µM [1]: 83.6 ± 12.7% | Death of retinal nerve cell (%) [2]: 63.0 ± 17.8%

COc1ccc(-c2cccc3sc(C(=O)N4CCOCC4)cc23)cn1 [Example 55, (4-(6-methoxypyridine-3-yl)benzo[b]thiophene-2-yl)(morpholino)methanone]
inhibition at 100 µM [1]: ≥ 50% | activity at 100 µM [1]: 43 ± 7.1% | Death of retinal nerve cell (%) [2]: 47.2 ± 12.4%

Cl.NC1CCN(C(=O)c2cc3c(-c4ccc(F)cc4)cccc3s2)CC1 [Example 37, (4-aminopiperidine-1-yl) (4-(4-fluorophenyl)benzo[b]thiophene-2-yl)methanone hydrochloride]
inhibition at 100 µM [1]: ≥ 50% | activity at 100 µM [1]: 25.5 ± 14.8% | Death of retinal nerve cell (%) [2]: 87.0 ± 13.2%

O=C(O)c1ccc(-c2cccc3sc(C(=O)N4CCOCC4)cc23)cc1 [Example 33, 4-(2-(morpholine-4-carbonyl)benzo[b]thiophene-4-yl)benzoic acid]
activity at 100 µM [1]: 90 ± 2.8% | Death of retinal nerve cell (%) [2]: 51.5 ± 7.0%

Nc1cccc(-c2cccc3sc(C(=O)N4CCOCC4)cc23)c1 [Example 42, (4-(3-aminophenyl)benzo[b]thiophene-2-yl)(morpholino)methanone]
inhibition at 100 µM [1]: ≥ 50% | activity at 100 µM [1]: 35.5 ± 3.9% | Death of retinal nerve cell (%) [2]: 57.2 ± 11.2%

O=C(c1cc2cc(-c3ccc(F)cc3)ccc2s1)N1CCOCC1 [Example 40, (5-(4-fluorophenyl)benzo[b]thiophene-2-yl)(morpholino)methanone]
activity at 100 µM [1]: 57.5 ± 12% | Death of retinal nerve cell (%) [2]: 68.2 ± 11.2%

CC(=O)Nc1ccc(-c2cccc3sc(C(=O)N4CCOCC4)cc23)cc1 [Example 10, N-(4-(2-(morpholine-4-carbonyl)benzo[b]thiophene-4-yl)phenyl)acetamide]
activity at 100 µM [1]: 62.5 ± 16.8% | Death of retinal nerve cell (%) [2]: 49.0 ± 7.0%

O=C(c1cc2c(Cc3ccc(F)cc3)cccc2s1)N1CCOCC1 [Example 67, (4-(4-fluorobenzyl)benzo[b]thiophene-2-yl)(morpholino)methanone]
inhibition at 100 µM [1]: ≥ 50% | activity at 100 µM [1]: 49.5 ± 3.5% | Death of retinal nerve cell (%) [2]: 59.3 ± 14.9%

Cn1c(C#N)ccc1-c1cccc2sc(C(=O)N3CCOCC3)cc12 [Example 72, 1-methyl-5-(2-(morpholine-4-carbonyl)benzo[b]thiophene-4-yl)-1H-pyrrole-2-carbonitrile]
activity at 100 µM [1]: 7 ± 8.5% | Death of retinal nerve cell (%) [2]: 58.5 ± 16.1%

O=C(c1cc2c(OCc3ccc(F)cc3)cccc2s1)N1CCOCC1 [Example 61, (4-(4-fluorobenzyloxy)benzo[b]thiophene-2-yl)(morpholino)methanone]
inhibition at 100 µM [1]: ≥ 50% | activity at 100 µM [1]: 22.5 ± 12% | Death of retinal nerve cell (%) [2]: 53.5 ± 14.5%

Cc1cc(C)c2cc(C(=O)N3CCOCC3)sc2c1 [Example 17, (4,6-dimethylbenzo[b]thiophene-2-yl)(morpholino)methanone]
activity at 100 µM [1]: 62.5 ± 16.8% | Death of retinal nerve cell (%) [2]: 38.5 ± 5.5%
